Experimental findings from patent US20260000079A1, “COMPOSITIONS AND METHODS FOR MODULATING IMMUNITY IN PLANTS” (BOYCE THOMPSON INSTITUTE FOR PLANT RESEARCH, INC., priority 2019, published 2026) are described below.

Data set [1] deals with Arabidopsis, tomato, and wheat roots. Description: LC-MS comparative metabolomics of ascr #18-treated plant roots. Format: in vivo. The protocol: Plant tissues were immediately frozen in liquid nitrogen and ground to a fine powder and extracted with 350 μL mixture of water/methanol/chloroform (1:2:1) for 12 hours at 4° C., with shaking at 220 rpm. The extracts were dried in vacuo, resuspended in 100-200 μL of 80% methanol and analyzed by LC/MS. For root tissues, seedlings were extensively washed three times with the excess amount of distilled water and dried on filter paper. The root tissues from 40 seedlings were pooled in one tube and then similarly extracted. Mixed stage C. elegans culture extract was prepared as described (Panda, et al. (2017) Angew Chem. Int. Ed. Engl. 56(17): 4729-4733).
High resolution LC-MS analysis was performed on a Dionex™ 3000 UPLC system coupled with a Thermo Q Exactive™ high-resolution mass spectrometer as described (Artyukhin, et al. (2018) J. Am. Chem. Soc. 140 (8): 2841-2852; Panda, et al. (2017) Angew Chem. Int. Ed. Engl. 56 (17): 4729-4733). Metabolite extracts were separated using water-acetonitrile gradient using Agilent ZORBOX Eclispse XDB-C18 rapid resolution column (2.1 mm×150 mm, particle size 1.8-micron) maintained at 40° C. Solvent A: 0.1% formic acid in water; Solvent B: 0.1% formic acid in acetonitrile. […] Ascarosides were detected in negative ionization mode as [M-H]— and MS/MS spectra and retention times confirmed by comparison with known standards. […]

The next data set relates to M. incognita J2 larvae. Nature of the data set: J2 larvae touching roots of pretreated seedlings in PF-127 gel. Format: in vivo, Meloidogyne incognita. Particulars: 48 hours pretreatment. As for the experimental part:
FIG. 4A provides a schematic of the experimental designs for assessing activation of defense pathways and resistance to nematodes and bacteria. […] Bacterial growth was assayed 3 days post inoculation. Data are averages±s.d. (n=17). […] Arabidopsis seedlings were treated with buffer or the indicated concentrations of ascr #18 for 48 hours before inoculation with approximately 300 freshly hatched M. incognita J2 larvae. The numbers of root galls of infected plants were counted 6 weeks post inoculation. Data are averages±s.d. (n≥15). […] Arabidopsis seedlings were treated with the indicated concentrations of ascr #18 for 48 hours before transfer into 12-well plates containing Pluronic® F-127 gel with ˜200 freshly hatched M. incognita J2 larvae. Larvae touching root tips (FIG. 4D) or the whole area of roots (FIG. 4E) were counted at 6 hours post seedling transfer. Data are average±s.d. (n=12). […] Transcript levels were determined by qRT-PCR and plotted as relative fold-change compared to mock treated plants. Data are averages±s.d (n≥6). *P≤0.05; **P≤0.005; ***P≤0.0005; two-tailed t-test.
FIG. 6A provides a graph of the number of nematodes touching the root tips of Arabidopsis wildtype and acx1acx5 treated with 50 nM ascr #18 or ascr #9 for 48 hours before transfer into 12-well plates containing Pluronic® F-127 gel with ˜200 freshly hatched M. incognita J2 larvae. Larvae touching the terminal part of roots were counted at 6 hours after seedling transfer. Data are average±s.d. (n=12). FIG. 6B provides a schematic of a Petri dish as shown in the plate layout. […] Larvae in the indicated scoring areas were counted after 4 hours. […] FIG. 6D provides the attraction index for different concentrations of ascr #18, ascr #9, or ascr #18/ascr #9 mixtures measured using the layout shown in FIG. 6C. […]
In a second experiment, wildtype and acx1acx5 were treated with ascr #18 for 48 hours prior to moving seedlings to a PF-127 gel containing approximately 200 M. incognita second-stage larvae (J2) (FIG. 4A, 4D, 4E). J2 larvae touching the roots were counted at 6 hours post seedling transfer.

Take `C[C@H](CCC(=O)O)O[C@@H]1O[C@@H](C)[C@H](O)C[C@H]1O` [ascr #9]: in data set [1] (all three plant species, ascr #18 root treatment 24 hours), the “abundance among ascr #18-derived metabolites in roots (LC-MS peak area)” value is listed as “most abundant differential metabolite”. Moreover, the “effect on infection (J2 larvae touching root tips)” value in the data set with M. incognita J2 larvae (wildtype or acx1acx5, 50 nM) is “did not significantly reduce infection”.

For the molecule `CC1O[C@@H](O[C@@H](C)CCCCCCCCC(=O)O)C(O)C[C@H]1O` (stereo in doubt) [ascr #18, (10R)-(3′R,5′R-dihydroxy-6′S-methyl-(2H)-tetrahydropyran-2-yloxy)-undecanoic acid], the “uptake and metabolism of ascr #18 in roots” value in data set [1] (roots soaked 24 hours in ascr #18 solution, monocots and dicots) is “taken up and subsequently metabolized into ascarosides with shorter fatty-acid side chains”. In the data set on M. incognita J2 larvae (wildtype or mutant, 1 μM), the “effect on M. incognita behavior (J2 larvae touching roots)” value is recorded as “did not significantly affect”. In addition, in the data set on M. incognita J2 larvae (wildtype, 50 nM, counted 6 hours post transfer), the “numbers of J2 larvae touching the root tips or whole root area” value is listed as “significantly reduced”.
